The solubility is how much of the substance goes into solution per volume. Lower therefore signals little dissolved substance.

A short description of the data set: Aqueous solubility of the compound. It counts as physicochemical.

`O=C1NC(=S)[N-]/C1=C/c1ccc(-c2ccc3c(c2)COC3=O)s1.[Na+]` showed a solubility of 43 µg/mL.

`O=C1NC(=S)[N-]/C1=C/c1ccc(-c2ccc3c(c2)C(=O)NCC3)s1.[Na+]` gave a solubility of 37.2 µg/mL. In turn, `O=C1NC(=S)[N-]/C1=C/c1ccc(-c2ccc3c(c2)CCNC3=O)s1.[Na+]` yielded a solubility of 1570 µg/mL. Compound `O=C1[N-]/C(=C/c2ccc(-c3ccc4c(c3)CNC4=O)s2)C(=O)N1.[Na+]` displayed a solubility of 136 µg/mL. This solubility lies about 12-fold lower than the previous one.

Turning to `CC1c2cc(-c3ccc(/C=C4/[N-]C(=S)NC4=O)s3)ccc2C(=O)N1C.[Na+]` (stereo not given), the solubility was found to be 1410 µg/mL. This solubility lies about 10-fold higher than the previous one. The result for `O=C1NC(=S)[N-]/C1=C/c1ccc(-c2ccc3c(c2)CN(CCCO)C3=O)s1.[Na+]` reads 10200 µg/mL; that for `CCOC(=O)N1Cc2cc(-c3ccc(/C=C4/[N-]C(=S)NC4=O)s3)ccc2C1=O.[Na+]`, 397 µg/mL. On to `O=C1NC(=S)[N-]/C1=C/c1ccc(-c2ccc3c(c2)CN(CCO)C3=O)s1.[Na+]`, for which the solubility was determined as 3430 µg/mL. This solubility lies about 8.6-fold higher than the previous one. As to `CN1Cc2cc(-c3ccc(/C=C4/[N-]C(=S)NC4=O)s3)ccc2C1=O.[Na+]`, the concentration in solution (solubility) came to 151 µg/mL.

In turn, `O=C1NC(=S)[N-]/C1=C/c1ccc(-c2ccc3c(c2)CNC3=O)s1.[Na+]` came in with a solubility of 140 µg/mL. This solubility and that of the compound before are within 1.5-fold of each other.

Source of the values: ChEMBL document CHEMBL3102825, “Exploration of a series of 5-arylidene-2-thioxoimidazolidin-4-ones as inhibitors of the cytolytic protein perforin” (J Med Chem, 2013).
